Patent US20030017565A1, “COMPOSITION AND METHOD FOR TREATING A POROUS ARTICLE AND USE THEREOF” (priority 1996, published 2003)

Legend:
Type in all cases: physicochemical
[1] = leaching of Japan cedar blocks treated with LSA and chemical agents (Example 4); conditions: 5% LSA; for Elution Rate (%) Chemical Agent: species measured as bracketed (Copper, Zinc, Nickel, Boron, H = hinokitiol), else the agent named
Procedure: For chemical agents having low solubilities, they were added to aqueous lignosulfonic acid solution after it was warmed to 60 to 90° C., and it was cooled at 25° C. after the chemical agents were suspended, dispersed, dissolved by Vortex-Mixer, […]
The amount of lignosulfonic acid which leached off was determined by measurement of the absorbance at 280 nm, and the amount of the chemical agent which leached off was determined by complex formation and spectrophotometry using PAN (1-(2-pyridylazo)-2-naphthol, Aldrich Chemical Company) or quinalizarin (Wako Pure Chemicals), separation, identification and determination, using HPLC or gas chromatography, or atomic absorption analysis were performed, followed by calculation of the amount of the chemical agents which was eluted. When the chemical agents had absorption at 280 nm, the concentration of lignosulfonic acid was calculated by measuring the absorbance at 280 nm of the chemical agents of which the concentration was measured by the above-described method and subtracting an influence by the chemical agent from the absorbance at 280 nm of the liquid which was eluted. The amounts of the chemical agents and lignosulfonic acid which were eluted were calculated and compared taking the amounts of them injected upon the impregnation treatment as 100%.

[2] = leaching of cypress blocks, bilirubin oxidase (Example 6); conditions: for Elution Rate (%) LSA: pH 8.1-8.8; for Elution Rate (%) Chemical Agent: pH 8.1-8.8, species as bracketed (Copper, Zinc, Nickel, Boron, H = hinokitiol), else the agent named
From the text: Taking the amounts of the lignosulfonic acid (LSA) and chemical agent as injected upon the impregnation treatment as 100%, respectively, the amounts of the substances which were eluted were compared.

[3] = leaching of Japan cedar blocks, treating mixture with tung oil (Example 8); conditions: Example 1 enzyme, 5% LSA, 2,000 ppm tung oil; for Elution Rate (%) LSA: pH 8.1-8.5; for Elution Rate (%) Chemical Agent: pH 8.1-8.5, species as bracketed (Copper, Zinc, Nickel, H = hinokitiol), else the agent named
Procedure: The amounts of the chemical agents and lignosulfonic acid which were eluted were calculated and compared taking the amounts of them injected upon the impregnation treatment as 100%.

[4] = leaching of Japan cedar blocks, powdery treatment agent stored 2 weeks (Example 21); conditions: 5 g in 100 ml; for Elution Rate (%) LSA: powdery agent (10 mg enzyme + 10 g LSA + agent) stored 2 weeks, Japan cedar; for Elution Rate (%) Chemical Agent: powdery agent stored 2 weeks, species as bracketed (Copper, Zinc, Nickel, Boron, H = hinokitiol), else the agent named
Procedure: 10 mg of the freeze-dried product described in Example 1, 10 g of commercially available lignosulfonic acid (LSA) powder, and various chemical agents were mixed well in a mortar to obtain a treatment agent for treating a porous article. If desired, a small amount of sodium carbonate powder was added to the resulting powder and mixed well, so that when a 5% aqueous solution was prepared from the above-described powder the solution could have a pH of 8.0 to 9.0. Then, after the powdery treatment agent was left to stand at room temperature for 2 weeks, 5 g of the powder was dissolved in 100 ml of deionized water to prepare a solution for treating a porous article. Using this solution, Japan cedar wood blocks were subjected to reduced pressure impregnation, drying/macromolecularization reaction, and leaching in the same manner as in Examples 3 and 4. Taking the amounts of lignosulfonic acid and chemical agents injected upon the impregnation treatment as 100%, respectively, the amounts of them which was eluted were compared. The results are shown in Table 12, from which it can be seen that the powdery treatment agent enables effective treatment of porous articles.

[5] = leaching of Japan cedar blocks, liquid treatment agent stored 2 weeks (Example 21); conditions: diluted 10-fold; for Elution Rate (%) LSA: liquid agent (6 g powder in 12 ml) stored airtight 2 weeks, Japan cedar; for Elution Rate (%) Chemical Agent: liquid agent stored airtight 2 weeks, species as bracketed (Copper, Zinc, Nickel, Boron, H = hinokitiol), else the agent named
Procedure: Further, 6 g of the powdery treatment agent obtained in the same manner as described above was dissolved in 12 ml of deionized water to obtain a liquid treatment agent for a porous article. The liquid treatment agent was transferred into a 20 ml screw capped test tube. After the test tube stand airtightly at room temperature for 2 weeks, the liquid treatment agent was diluted 10-fold with deionized water to prepare a solution for treating a porous article. Japan cedar wood blocks were subjected to reduced pressure impregnation treatment with the solution thus obtained, drying/macromolecularization reaction, and elution treatment in the same manner as in Examples 3 and 4. The amounts of the lignosulfonic acid which were eluted were calculated and compared taking the amounts of it injected upon the impregnation treatment as 100%.

[6] = leaching of cypress blocks, peroxidase + alcohol oxidase (Example 7); conditions: 5 U/ml peroxidase + 5 U/ml alcohol oxidase + 1% methanol
From the text: The peroxidase used was obtained from horse radish (Type II, Sigma) and the alcohol oxidase used was obtained from Candida boidini (Boehringer Mannheim Biochemica).

[7] = in the absence of enzyme (comparison), pH 8.1-8.8
[8] = in the presence of enzyme, Japan cedar, pH of treating agent 8.1-8.8
[9] = in the presence of enzyme, pH 8.1-8.8

Compound	Elution Rate (%) LSA [1, 7] [%]	Elution Rate (%) Chemical Agent [1, 7] [%]	Elution Rate (%) LSA [1, 8] [%]	Elution Rate (%) Chemical Agent [1, 9] [%]	Elution Rate (%) LSA [2] [%]	Elution Rate (%) Chemical Agent [2] [%]	Elution Rate (%) LSA [3] [%]	Elution Rate (%) Chemical Agent [3] [%]	Elution Rate (%) LSA [4] [%]	Elution Rate (%) Chemical Agent [4] [%]	Elution Rate (%) LSA [5] [%]	Elution Rate (%) Chemical Agent [5] [%]	Elution Rate (%) LSA ([6]; pH 8.1-8.8) [%]	Elution Rate (%) Chemical Agent ([6]; pH 8.1-8.8, species as bracketed (Copper, Zinc, Boron, H = hinokitiol), else the agent named) [%]
Nc1ccccc1N [200 ppm o-Phenylenediamine, o-Phenylenediamine]	16.5	5.3	1.0	0.2	2.5	0.6								
CC1=CCC(C(C)(C)O)CC1 (stereo not drawn) [500 ppm α-terpineol, α-terpineol]	24.5	9.1	0.7	0.6	1.1	1.4	0.6	0.3						
CC(C)c1cccc(=O)c(O)c1 [Hinokitiol (0.2 g), Hinokitiol]									0.6	3.0	0.4	2.5		
O=C(OC[C@H]1O[C@@H](OC(=O)c2cc(O)c(O)c(OC(=O)c3cc(O)c(O)c(O)c3)c2)[C@H](OC(=O)c2cc(O)c(O)c(OC(=O)c3cc(O)c(O)c(O)c3)c2)[C@@H](OC(=O)c2cc(O)c(O)c(OC(=O)c3cc(O)c(O)c(O)c3)c2)[C@@H]1OC(=O)c1cc(O)c(O)c(OC(=O)c2cc(O)c(O)c(O)c2)c1)c1cc(O)c(O)c(OC(=O)c2cc(O)c(O)c(O)c2)c1 [Tannic acid (0.1 g), Tannic acid]									3.6	4.2	3.7	4.6		
CC1CCC(C(C)C)C(O)C1 [500 ppm (1R,2S,5R)-(−)-menthol, (1R,2S,5R)-(−)-menthol]	27.4	7.5	0.5	0.2	2.8	1.3	0.6	0.4						
CC(C)=CCCC(C)=CC=O [100 ppm citral, citral]	23.4	7.1	2.5	1.8	7.9	6.0								
C=CCN=C=S [100 ppm Allyl isothiocyanate, Allyl isothiocyanate]	26.3	7.5	3.5	2.2	8.5	7.8	2.1	1.3						
(+)-Catechin.H2O [(+)-Catechin.H2O (0.2 g)]									2.9	3.2	2.0	3.4		
Nc1ccccc1N [o-Phenylenediamine (0.04 g), o-Phenylenediamine]									1.5	0.4	2.1	0.8		
OB(O)O [1% Boric acid, Boric acid]	22.1	32.3	0.7	25.1	3.7	26.2							5.6	27.5
CC(C)=CCCC(C)CCO (stereo not drawn) [100 ppm β-citronellol, β-citronellol]	25.4	6.8	0.7	0.4	2.9	0.8	1.7	0.2						
OB(O)O [Boric acid (2 g), Boric acid]									0.6	18.1	0.6			
Cc1cc2cccc(C)c2cc1C [10 ppm 2,3,5-Trimethylnaphthalene, 2,3,5-Trimethylnaphthalene]	23.3	5.6	0.8	0.1	2.4	0.3								
CC12CCC(CC1)C(C)(C)O2 [500 ppm cineole, cineole]	25.7	6.2	0.5	0.2	0.8	0.6	0.5	0.2						
CC1=CC[C@@H]2C[C@H]1C2(C)C [500 ppm (1R)-(+)-α-pinene, (1R)-(+)-α-pinene]	22.8	7.3	0.6	0.3	1.0	1.2	0.7	0.2						
O=CC=Cc1ccccc1 [100 ppm Cinnamaldehyde, Cinnamaldehyde]	22.1	8.5	1.5	0.7	5.4	2.1	1.9	0.2						
